Experiment [1] deals with fundic pouch dog. The experiment is described as follows: Suppressing action on gastric acid secretion (histamine stimulation) in fundic pouch dog. Type of experiment: in vivo. Conditions: for Amount of gastric juice secretion: histamine stimulation 0.2 mg/kg/hr, control 116.1 ± 12.3, mean ± standard error for 6 samples. The procedure: (§1) An effect on gastric acid secretion by stimulation under awakening was studied by using (fundic pouch dog). For preparation of the fundic pouch dog, a mongrel dog after starvation overnight was subjected to sterile ventrotomy under anesthesia using sodium pentobarbital (30 mg/kg, i.v.), and a fistula was attached to a part of the corpus ventriculi. After recovery period for two weeks, the dog was fixed to the Pavlov's stand, and gastric juice was collected every 15 minutes for 4 hours under histamine stimulation (0.2 mg/kg/hr). A volume of each collected gastric juice was recorded, and the juice was titrated with 0.01N NaOH using pH automatic measuring apparatus (Radiometer Copenhagen). The test compound, encapsulated in a gelatin capsule, was orally administered one hour before histamine administration.

Experiment [2] concerns fundic pouch dog. Nature of the experiment: Suppressing action on gastric acid secretion (tetragastrin stimulation) in fundic pouch dog. The experiment is classed as in vivo. As to conditions: for Amount of gastric juice secretion: tetragastrin stimulation 2 μg/kg/hr, control 40.1 ± 3.9, mean ± standard error for 6 samples. As to the method: as §1
Experiment was conducted in a similar manner as Example 1 except that the stimulating agent was replaced with tetragastrin(2 μg/kg/hr).

The structures appear in SMILES notation.

With `O=C(N[C@H]1CN2CCC1CC2)c1cnc2ccsc2c1O` [Test compound, R-(−)-N-(1-azabicyclo[2.2.2]oct-3-yl)-7-hydroxythieno[3,2-b]-pyridine-6-carboxamide], the “Amount of gastric juice secretion” value was 76.8 ± 7.4 mEq/4 hr with fundic pouch dog [1] (3 μg/kg oral (gelatin capsule) one hour before histamine), 61.9 ± 5.5 mEq/4 hr in the experiment on fundic pouch dog [1] (10 μg/kg oral (gelatin capsule) one hour before histamine), 26.7 ± 7.8 mEq/4 hr in the experiment on fundic pouch dog [2] (10 μg/kg oral) and 12.9 ± 5.3 mEq/4 hr with fundic pouch dog [2] (30 μg/kg oral). For the same compound, the “secretion of gastric juice by histamine stimulation (result in words)” value in the experiment with fundic pouch dog [1] (histamine stimulation, fundic pouch dog) is “suppressed”. Further, the “secretion of gastric juice by tetragastrin stimulation (result in words)” value in the experiment on fundic pouch dog [2] (tetragastrin stimulation, fundic pouch dog) was “suppressed”.

For the origin of these results see patent US6967207B2, “Preventive or therapeutic agents for gastric or esophageal regurgitation” (Mitsubishi Pharma Corporation, priority 2000, dated 2005).
